Laboratory results taken from patent publication US11246856B2, “Methods of treating resistant cancers” (University of Maryland, Baltimore, priority 2017, dated 2022).

Legend:
Type in all cases: cell-based
A375-PLX-R cells = experiment: Cell proliferation, PLX4032-resistant A375-PLX-R cells; details: ERK1/2 inhibitor treatment, FIG. 5H
Method: (§1) A375, SK-MEL-5 and SK-MEL-28 cell lines were maintained in DMEM growth medium containing 10% FCS, 2 mM L-glutamine and 1 mM sodium pyruvate. The WM3248 cells were maintained in MCDB153:L15 (4:1) growth medium containing 2% FCS, […] insulin and 1.68 mM CaCl2. To create PLX4032-resistant cells, A375, SK-MEL-5, SK-MEL-28 and WM3248 cells were treated with […] in monolayer culture in growth medium for several weeks. The surviving cells were then expanded and cultured in increasing doses of PLX4032 up to […]. The resulting PLX4032-resistant cells, designated PLX4032-resistant (e.g., A375-PLX-R) were routinely maintained in the presence of […] PLX4032.

[1] = system: SKMELS-PLX-R, SKMEL28-PLX-R and WM3248-PLX-R cells; experiment: Cell proliferation, other PLX4032-resistant lines; details: ERK1/2 inhibitor treatment, FIG. 5I
Method: as §1
This predicts that the BRAF inhibitors-resistant cells should remain sensitive to ERK1/2 inhibitors. To assess the role of ERK1/2 PLX4032 resistant cells were treated with SCH772984, a specific inhibitor of ERK1/2 (31), and the impact on cell proliferation was monitored.

[2] = system: YAP1, TAZ and TEAD in A375 and A375-PLX-R cells; experiment: YAP1/TAZ/TEAD mRNA and protein level after verteporfin, monolayer cells; details: proteasome inhibitor with verteporfin, FIG. 4I
Method: Equivalent amounts of protein were electrophoresed on denaturing and reducing 10% polyacrylamide gels and transferred to nitrocellulose membrane. The membrane was blocked by 5% nonfat dry milk for one hour and incubated with 1:1000 primary antibody in 5% nonfat dry milk. Blots were rinsed in TBS-T and then incubated with secondary antibodies (1:5000) for 2 h. Secondary antibody binding was visualized using ECL Prime (Amersham) chemiluminescence detection technology. For immunostaining, cells were harvested, suspended in growth medium, and plated in LAB-TEK II Chamber Slide System. After 24 h, the cells were fixed with 4% paraformaldehyde at room temperature for 15 min, washed three with phosphate-buffered saline, in 0.1% Triton X-100 for 15 min, washed with phosphate-buffered saline, and blocked for 1 h with phosphate-buffered saline containing 7.5% fetal calf serum. Primary antibodies were added, and the slides incubated overnight at 4° C. Cells were then washed three times with phosphate-buffered saline and incubated 1 h with the appropriate Alexa Flour fluorescence probe-conjugated secondary antibody. After additional washing, the cells were stained with DAPI for 10 min prior to imaging.
Total RNA was isolated using Illustra RNAspin mini kit (GE Healthcare), and 1 μg of RNA was used for cDNA synthesis. Gene expression was measured by real time PCR using Light Cycler 480 SYBR Green I Master Mix (04-707 516 001) from Roche Diagnostics (Indianapolis, Ind.). The signals were normalized using cyclophilin A control primers. The gene specific primers used for detection of mRNA levels were as follows: cyclophilin A (forward, 5′-[…] (SEQ ID NO: 3); reverse, 5′-[…] (SEQ ID NO: 4)), TAZ (forward, 5′-GTATCCCAGCCAATC TCG (SEQ ID NO: 5); reverse, 5′-TTCTGAGTGGGGTGGTTC (SEQ ID NO: 6)) and YAP1 (forward, 5′-[…] (SEQ ID NO: 7); reverse, 5′-[…], (SEQ ID NO: 8)) (11).
To understand the mechanism of verteporfin action, monolayer A375 and A375-PLX-R cells were treated with […] verteporfin for 24 h and the impact on YAP1/TAZ mRNA and protein level was monitored. […] The proteasome is known to regulate YAP1/TAZ level (29,30) and so whether the proteasome was responsible for the observed reductions was examined.

Compound | A375-PLX-R cells number (A375-PLX-R cells) | proliferation of PLX4032-resistant cells [1] | reversal of verteporfin-dependent reduction in YAP1, TAZ and TEAD level [2]
O=C(Nc1ccc2[nH]nc(-c3ccncc3)c2c1)[C@@H]1CCN(CC(=O)N2CCN(c3ccc(-c4ncccn4)cc3)CC2)C1 [SCH772984] | time-dependent reduction | reduced | 
CC(=O)N[C@@H](CSC(=O)[C@]1([C@@H](O)C(C)C)NC(=O)[C@H](C)[C@@H]1O)C(=O)O [lactacystin] |  |  | not reversed
